# Results: paper PMC3062254 (Molecular microbiology, 2011)
# Experiments:
# Assay in all cases: NADPH/GSH reductase-coupled HED assay, A340
# Format in all cases: biochemical
# Settings in all cases: read-out: Km (HED); 0.5 mM GSH, 0.2 mM NADPH, yeast GSH reductase, 50 mM sodium phosphate pH 7.5, 50 mM NaCl, 25 °C
# [1] = molecular target: cGrx2 (Clostridium Cys-containing Grx2) (Alkaliphilus oremlandii, UniProt A8MJH2)
# [2] = molecular target: cGrx1 (Clostridium selenoprotein Grx1) (Alkaliphilus oremlandii, UniProt A8MIN3, U13C)
# [3] = molecular target: eGrx1 (E. coli Grx1) (Escherichia coli, UniProt P68688)
# Sequence of eGrx1 (E. coli Grx1) (P68688 whole entry): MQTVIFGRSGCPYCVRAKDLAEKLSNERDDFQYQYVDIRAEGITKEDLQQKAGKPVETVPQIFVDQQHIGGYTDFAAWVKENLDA
# [4] = molecular target: cGrx2 (Clostridium Cys-containing Grx2) (Alkaliphilus oremlandii, UniProt A8MJH2, C15S)
smiles,measurement,setting,value
OCCSSCCO [hydroxyethyl disulfide],Km,[1],17.6 ± 5.6 mM
same,Km,[2],1.5 ± 0.8 mM
same,Km,[3],11.2 ± 2.2 mM
same,Km,[4],18.1 ± 4.5 mM
